Experimental data reported in US10231939B2, “Hydroxytyrosol and oleuropein compositions for induction of DNA damage, cell death and LSD1 inhibition” (priority 2012, dated 2019).

What was measured:
Experiment in all cases: Cell proliferation (Cell Titer-Blue Assay)
Assay type in all cases: cell-based, human
A431 cells = conditions: for EC50: Homo sapiens, A-431
Experimental: (§1) Human epidermal squamous carcinoma A431 cells (ATCC No. CRL-1555), human breast adenocarcinoma MCF7 cells (ATCC No. HTB-22) and brain glioblastoma T98G cells (ATCC No. CRL-1690) obtained from the ATCC were grown as monolayers in a Modified Eagle's Medium (a-MEM) supplemented with 2 mmol/L HEPES (pH 7.4; GIBCO-Invitrogen), 10% (v/v) FBS, 2 mmol/L L-glutamine (GIBCO-Invitrogen), and 80 units gentamicin (GIBCO-Invitrogen). Human epithelial lung adenocarcinoma A549 cells (ATCC No. CCL-185), human liver hepatocellular carcinoma and human colorectal carcinoma HT-29 cells (ATCC No. HTB-38) were obtained from the American Type Culture Collection and grown as monolayers in DMEM (Gibco, Invitrogen) supplemented with 10% (v/v) FBS (In Vitro Technologies), antibody/antimycotic containing 100 U/mL Penicillin, 100 μg/mL Streptomycin, 0.25 μg/mL Amphotericin B (Invitrogen, Carlsbad). All adherent cells were maintained in the exponential growth phase in T75 cm^2 vented culture flasks and passaged by 0.05% (v/v) trypsin-EDTA (GIBCO, Invitrogen) before seeding; at 37° C., 5% (v/v) CO2. Cell proliferation was determined using the Cell Titer-Blue Assay kit (Promega, Madison, Wis., USA). Cells were seeded at 10,000 cells per well in black flat bottom 96-well plates (Nalge Nunc, Penfield, N.Y., USA) and treated with serial doses of hydroxytyrosol (0-3200 μM) and oleuropein (0-12800 μM) for 24, 48 and 120 hours at 37° C., 5% (v/v) CO2. Following incubation with the test samples, Cell-Titer Blue reagent (20 μl per 100 μL) was added to each well and mixed gently for 5 sec prior to 4 hr incubation at 37° C. in a humidified atmosphere of 5% CO2. Fluorescence intensity (λex=550 nm and λem=615 nm) was determined using a Perkin Elmer Victor3 multilabel microplate counter (PerkinElmer, Waltham, Mass., USA). Data were expressed as % relative cell viability compared to untreated cells after correction of subtracting the media control fluorescence reading.

HT-29 cells = conditions: for EC50: Homo sapiens
Experimental: as §1

A549 cells = conditions: for EC50: Homo sapiens
Experimental: as §1

T98G cells = conditions: for EC50: Homo sapiens
Experimental: as §1

MCF7 cells = conditions: for EC50: Homo sapiens
Experimental: as §1

MyLa CD4+ cells = conditions: for EC50: Homo sapiens
Experimental: (§2) Human cutaneous T cell lymphoma MyLa cells expressing CD4^+ (ECACC No. 95051032) and CD8^+ (ECACC No. 95051033) were obtained from the European Culture Collection of Cell Cultures (ECACC; CAMR, Salisbury, UK) and maintained in complete-RPMI 1640 medium supplemented with 2 mM glutamine (GIBCO-Invitrogen), 10% (v/v) human AB serum (Lonza, Basel, Switzerland) and 100 u/mL IL-2 (Sigma-Aldrich, USA) or 100 u/mL IL-2 (Sigma-Aldrich, USA) with 100 u/mL IL-4 (R&D Systems, MN, USA) respectively. Cells were cultured in suspension in a humidified atmosphere of 5% (v/v) CO2 at 37° C. and were maintained in exponential growth phase. For maintenance, cells were passaged three times per week and seeded at ratios 1:2. Liver hepatocellular carcinoma Hep G2 cells (ATCC No. […]) were maintained in RPMI-1640 supplemented with 10% fetal bovine serum (FBS), and were cultured in 75 cm^2 T-flask and maintained at 37° C. in 5% CO2 humidified incubator. Cell proliferation was determined using the Cell Titer-Blue Assay kit (Promega, Madison, Wis., USA). Cells were seeded at 10,000 cells per well in black flat bottom 96-well plates (Nalge Nunc, Penfield, N.Y., USA) and treated with serial doses of hydroxytyrosol (0-3200 μM) and oleuropein (0-12800 μM) for 24, 48 and 120 hours at 37° C., 5% (v/v) CO2. Following incubation with the test samples, Cell-Titer Blue reagent (20 μl per 100 μL) was added to each well and mixed gently for 5 sec prior to 4 hr incubation at 37° C. in a humidified atmosphere of 5% CO2. Fluorescence intensity (λex=550 nm and λem=615 nm) was determined using a Perkin Elmer Victor3 multilabel microplate counter (PerkinElmer, Waltham, Mass., USA). Data were expressed as % relative cell viability compared to untreated cells after correction of subtracting the media control fluorescence reading.

MyLa CD8+ cells = conditions: for EC50: Homo sapiens
Experimental: as §2

Hep G2 cells = conditions: for EC50: Homo sapiens, HepG2
Experimental: as §2

Row | SMILES | EC10 (concentration required to reduce the cell viability of the population to 10%) (A431 cells; A431, 120 hr) | EC50 (A431 cells; A431, 24 hr) | EC50 (A431 cells; A431, 48 hr) | EC50 (A431 cells; A431, 120 hr) | EC10 (concentration required to reduce the cell viability of the population to 10%) (HT-29 cells; HT-29, 120 hr) | EC50 (HT-29 cells; HT-29, 24 hr) | EC50 (HT-29 cells; HT-29, 48 hr) | EC50 (HT-29 cells; HT-29, 120 hr) | EC10 (concentration required to reduce the cell viability of the population to 10%) (A549 cells; A549, 120 hr) | EC50 (A549 cells; A549, 24 hr) | EC50 (A549 cells; A549, 48 hr) | EC50 (A549 cells; A549, 120 hr) | EC10 (concentration required to reduce the cell viability of the population to 10%) (T98G cells; 120 hr) | EC50 (T98G cells; 24 hr) | EC50 (T98G cells; 48 hr) | EC50 (T98G cells; 120 hr) | EC50 (MCF7 cells; MCF7, 24 hr) | EC50 (MCF7 cells; MCF7, 48 hr) | EC50 (MCF7 cells; MCF7, 120 hr) | EC10 (concentration required to reduce the cell viability of the population to 10%) (MCF7 cells; MCF7, 120 hr) | further results
1 | OCCc1ccc(O)c(O)c1 [HT, 4-(2-hydroxyethyl)-1,2-benzenediol] | 1000 µM | 870 µM | 920 µM | 480 µM | 380 µM | 800 µM | 230 µM | 310 µM | 320 µM | 417 µM | 220 µM | 160 µM | 1120 µM | 1340 µM | 1750 µM | 700 µM | 580 µM | 900 µM | 520 µM | 750 µM | EC10 (concentration required to reduce the cell viability of the population to 10%) (MyLa CD4+ cells; 120 hr): 760 µM; EC50 (MyLa CD4+ cells; 24 hr): 1010 µM; EC50 (MyLa CD4+ cells; 48 hr): 870 µM; EC50 (MyLa CD4+ cells; 120 hr): 400 µM; EC10 (concentration required to reduce the cell viability of the population to 10%) (MyLa CD8+ cells; 120 hr): 650 µM; EC50 (MyLa CD8+ cells; 24 hr): 460 µM; EC50 (MyLa CD8+ cells; 48 hr): 450 µM; EC50 (MyLa CD8+ cells; 120 hr): 230 µM; EC10 (concentration required to reduce the cell viability of the population to 10%) (Hep G2 cells; Hep-G2, 120 hr): 360 µM; EC50 (Hep G2 cells; Hep-G2, 24 hr): 427 µM; EC50 (Hep G2 cells; Hep-G2, 48 hr): 470 µM; EC50 (Hep G2 cells; Hep-G2, 120 hr): 205 µM
2 | C/C=C1/[C@H](O[C@@H]2O[C@H](CO)[C@@H](O)[C@H](O)[C@H]2O)OC=C(C(=O)OC)[C@H]1CC(=O)OCCc1ccc(O)c(O)c1 [OL, oleuropein] | 4450 µM | 1750 µM | 4400 µM | 2900 µM | 2950 µM | 1580 µM | 2500 µM | 1850 µM | 1540 µM | 1080 µM | 1100 µM | 1220 µM | 6220 µM | 2770 µM | 6100 µM | 5500 µM | 4750 µM | 3000 µM | 4100 µM | 4700 µM | EC10 (concentration required to reduce the cell viability of the population to 10%) (MyLa CD4+ cells; 120 hr): 4800 µM; EC50 (MyLa CD4+ cells; 24 hr): 647 µM; EC50 (MyLa CD4+ cells; 48 hr): 3800 µM; EC50 (MyLa CD4+ cells; 120 hr): 3400 µM; EC10 (concentration required to reduce the cell viability of the population to 10%) (MyLa CD8+ cells; 120 hr): 3020 µM; EC50 (MyLa CD8+ cells; 24 hr): 647 µM; EC50 (MyLa CD8+ cells; 48 hr): 3600 µM; EC50 (MyLa CD8+ cells; 120 hr): 270 µM; EC10 (concentration required to reduce the cell viability of the population to 10%) (Hep G2 cells; Hep-G2, 120 hr): 2600 µM; EC50 (Hep G2 cells; Hep-G2, 24 hr): 703 µM; EC50 (Hep G2 cells; Hep-G2, 48 hr): 2400 µM; EC50 (Hep G2 cells; Hep-G2, 120 hr): 1300 µM
